The test system of assay [1] is clinical strains of P. aeruginosa. The assay is described as follows: microbe, parasite or virus in culture. In kind it is cell-based, Pseudomonas aeruginosa. To be noted: for MIC: Pseudomonas aeruginosa. The method, then:
MICs (μg/ml, x-axis) for each compound are shown below each graph. […] The OD at 600 nm quantitates the extent of bacterial growth. Diamonds=L6K-F17; squares=tobramycin. Incubation: 37° C. for 19-24 hours.
Nine different clinical P. aeruginosa isolates were tested with a representative CAP, L-6KF17.

Assay [2] has as its system clinically isolated P. aeruginosa mucoid strains. The assay is described as follows: microbe, parasite or virus in culture. The settings on record: Pseudomonas aeruginosa. How it is done:
(§1) The clinically isolated P. aeruginosa mucoid strains that were used in these experiments are described in Table 1.
(§2) Methods: Prep Work—3 Days Culture the Clinical Mucoid P. aeruginosa Strains Isolated from CF Patients • 1. Freshly subculture the glycerol stock of the strain (stored at −80° C.) by streaking onto a blood agar (3˜4 streaks). Incubate the blood agar plate at 37° C. for 24 hr. The consistency of the mucoid phenotype can be improved by further subculturing (e.g., a total of 3 times, one/day). • 2. The following day, pick a few colonies and streak them onto a fresh blood agar. Note: Every time the cells are cultured using the stock strains (stored at −80° C.), they should be subcultured 3 times in total, and the last blood agar plate is then good for about one week. In the following week, the strains can be re-subcultured from the last agar plate to grow fresh colonies—this needs only to be done once (no need to do it 3 times). If the mucoid phenotype is lost, the glycerol stocks (−80° C.) should be used, and subcultured 3 times. Biofilm Assay—Day 1 Grow Overnight Cell Culture • 1. Inoculate freshly cultured cells (see prep work) in 10 mL TSB, and grow overnight at 37° C. on a shaker. […] Biofilm Assay—Day 2 Biofilm Set-up • 1. Make 0.5 McFarland for each strain/organism (add ˜100 μL O/N culture to 2 mL 50% TSB): • 0.5 McFarland=10^8 CFU/mL. • To calibrate a colourimeter/turbidity meter: • Positive blank: place a solid marker in the holder; turn the left knob to adjust to zero. • Negative blank: use a glass tube containing 50% TSB (1:1 TSB/H2O); adjust the right knob to 100% T. • Non-mucoid strains should be read in the lower ‘red zone’ on a colorimeter/turbidity meter. • Mucoid strains should be a bit heavier, and read in the mid ‘red zone’. • 2. Make bacterial inoculums: to a 50 mL falcon tube, add 300 μL of 0.5 McFarland to 19.7 mL of TSB. • 3. Mix the tube gently by inverting. • 4. In the biosafety fume hood or beside the flame: • Label a 96-well plate: strain and time. • Pour inoculum into a reservoir. • Using the multi-channel pipet, add 150 μL of inoculum into each well, leave the last column empty (last column=negative control, no cells). • Carefully place a peg lid onto the plate, match the cut corners. • 5. Place the plate on a shaker in 37° C. incubator (requires ≥3 h). Checking Biofilm Plate Growth • 1. Check plates periodically using a plate-reader to determine OD readings: • At OD650, aim for ˜0.045-0.050. • Depending on the strain, require 3-28 h to grow. […] Loading Antibiotic Plates • 1. Place the peg lid (containing biofilm growth) of the susceptibility plate into a pre-made 96-well antibiotic plate (see protocol from Day 1; see FIG. 1). Incubate at 37° C. for 24 h. * This will be referred to the planktonic growth plate, which measures the planktonic susceptibility in the biofilm assay, or MICs. * • 2. Place the lid of 96-well antibiotic plate onto the previous susceptibility plate, and keep in the fridge for reference until the experiment is completed. • 3. Proceed to perform inoculum check (see below) Inoculum Check • 1. Purity check: • Take a loopful of bacteria culture from any well of the susceptibility plate. • Spread onto half of a blood agar plate. • Place in the incubator at 37° C. for 24 h. • 2. Inoculum check: • In sterile Eppendorf tubes or liver vials (need 4 per strain), prepare the following dilutions: • a. 10^2: […] from any well of the susceptibility plate. • b. 10^3: 900 μL of H2O and 100 μL of mixture from Step (a). • c. 10^4: 900 μL of H2O and 100 μL of mixture from Step (b). • d. 10^5: 900 μL of H2O and 100 μL of mixture from Step (c). • Split blood agar plates into quadrants: two for 10^4 and two for 10^5. • Take 50 μL from Step (c) or Step (d) and place onto blood agar plates. • Let dry for about 30 min in the hood with the lid closed, and then incubate upside-down at 37° C. for 18˜24 h.

The subject of assay [3] is clinically isolated P. aeruginosa mucoid strains (biofilm). The assay is described as follows: Biofilm antibacterial susceptibility assay, biofilm recovery plate (BICs). In kind it is cell-based, Pseudomonas aeruginosa. How it is done:
as §1, §2

The structures appear in SMILES notation. ≈ marks a conversion by molar mass, not a printed value.

`C[C@H](NC(=O)[C@H](C)NC(=O)[C@H](Cc1ccccc1)NC(=O)[C@H](C)NC(=O)[C@H](C)NC(=O)[C@H](Cc1c[nH]c2ccccc12)NC(=O)[C@H](C)NC(=O)[C@H](C)NC(=O)[C@H](Cc1ccccc1)NC(=O)[C@H](C)NC(=O)[C@H](C)NC(=O)[C@H](CCCCN)NC(=O)[C@H](CCCCN)NC(=O)[C@H](CCCCN)NC(=O)[C@H](CCCCN)NC(=O)[C@H](CCCCN)NC(=O)[C@@H](N)CCCCN)C(N)=O` [L-6KF17]: in assay [1] (nine clinical P. aeruginosa isolates), the “MIC compared with tobramycin” value is on record as “equal to or superior to tobramycin in most cases”.
Consider `C[C@@H](O)[C@H]1C(=O)N2C(C(=O)O)=C(S[C@@H]3CN[C@H](C(=O)N(C)C)C3)[C@H](C)[C@H]12` [Meropenem, meropenem], for which the MIC was no more than 0.5 µg/mL in assay [2] (strain HSC 003B3-1, planktonic); 1 to 2 µg/mL (≈ 2.61 to 5.22 µM) in assay [2] (strain HSC 020B2-1, planktonic); 2 µg/mL (≈ 5.22 µM) in assay [2] (strain HSC 027B2-3, planktonic). Besides, the BIC is no more than 0.5 µg/mL in assay [3] (strain HSC 003B3-1, biofilm); 2 µg/mL in assay [3] (strain HSC 020B2-1, biofilm); 4 µg/mL in assay [3] (strain HSC 027B2-3, biofilm).
Consider `NC[C@H]1O[C@H](O[C@H]2[C@H](O)[C@@H](O[C@H]3O[C@H](CO)[C@@H](O)[C@H](N)[C@H]3O)[C@H](N)C[C@@H]2N)[C@H](N)C[C@@H]1O` [Tobramycin, tobramycin], for which the MIC in assay [2] (strain HSC 003B3-1, planktonic) was 2 to 8 µg/mL (≈ 4.28 to 17.1 µM); in assay [2] (strain HSC 020B2-1, planktonic) it was 32 to 64 µg/mL (≈ 68.4 to 137 µM); in assay [2] (strain HSC 027B2-3, planktonic), greater than 128 µg/mL; in assay [2] (strain SMH 022B5-2, planktonic), no more than 0.5 µg/mL; in assay [2] (strain SMH 051B3-1, planktonic) it was no more than 0.5 µg/mL; in assay [2] (strain SMH 123E1-1, planktonic) it was no more than 0.5 µg/mL. The MIC was 1 µg/mL (≈ 2.14 µM) in assay [1] (strain HSC 002B10-2); 8 µg/mL (≈ 17.1 µM) in assay [1] (strain HSC 004B1-3); 8 µg/mL (≈ 17.1 µM) in assay [1] (strain HSC 007E3-2); greater than 32 µg/mL in assay [1] (strain HSC 035B7-1); 2 µg/mL (≈ 4.28 µM) in assay [1] (strain SMH 064B15-2); greater than 32 µg/mL in assay [1] (strain SMH 072B5-2). For the same molecule, the MIC stood at 2 µg/mL (≈ 4.28 µM) in assay [1] (strain SMH 112B41), 8 µg/mL (≈ 17.1 µM) in assay [1] (strain SMH 130B12-1) and 16 µg/mL (≈ 34.2 µM) in assay [1] (strain SMH 154B10-2). Besides, the BIC in assay [3] (strain HSC 003B3-1, biofilm) is 8 to 64 µg/mL; in assay [3] (strain HSC 020B2-1, biofilm) it was 128 µg/mL; in assay [3] (strain HSC 027B2-3, biofilm) it was greater than 128 µg/mL; in assay [3] (strain SMH 022B5-2, biofilm), no more than 0.5 µg/mL; in assay [3] (strain SMH 051B3-1, biofilm) it was no more than 0.5 µg/mL; in assay [3] (strain SMH 123E1-1, biofilm) it was 0.5 to 1 µg/mL.

The values are drawn from US10507227B2, “Cationic antimicrobial peptides” (The Hospital for Sick Children, priority 2014, dated 2019).
